# Source: ChEMBL document CHEMBL4715821, “Discovery of 4-ethoxy-7H-pyrrolo[2,3-d]pyrimidin-2-amines as potent, selective and orally bioavailable LRRK2 inhibitors” (Bioorg Med Chem Lett, 2018)
# Tests used:
# [1] = Dose normalized AUC (0 to t) in Han-Wistar rat brain at 10 mg/kg, po measured up to 7 hrs by UPLC-MS/MS analysis; type: ADME, organism-based; conditions: in vivo
# [2] = Unbound fraction in rat blood; type: ADME, tissue-based
# [3] = target: Voltage-gated inwardly rectifying potassium channel KCNH2 (Homo sapiens, UniProt Q12809); test: Inhibition of human ERG
# Voltage-gated inwardly rectifying potassium channel KCNH2, sequence (Q12809 whole entry, the tested form may be a part): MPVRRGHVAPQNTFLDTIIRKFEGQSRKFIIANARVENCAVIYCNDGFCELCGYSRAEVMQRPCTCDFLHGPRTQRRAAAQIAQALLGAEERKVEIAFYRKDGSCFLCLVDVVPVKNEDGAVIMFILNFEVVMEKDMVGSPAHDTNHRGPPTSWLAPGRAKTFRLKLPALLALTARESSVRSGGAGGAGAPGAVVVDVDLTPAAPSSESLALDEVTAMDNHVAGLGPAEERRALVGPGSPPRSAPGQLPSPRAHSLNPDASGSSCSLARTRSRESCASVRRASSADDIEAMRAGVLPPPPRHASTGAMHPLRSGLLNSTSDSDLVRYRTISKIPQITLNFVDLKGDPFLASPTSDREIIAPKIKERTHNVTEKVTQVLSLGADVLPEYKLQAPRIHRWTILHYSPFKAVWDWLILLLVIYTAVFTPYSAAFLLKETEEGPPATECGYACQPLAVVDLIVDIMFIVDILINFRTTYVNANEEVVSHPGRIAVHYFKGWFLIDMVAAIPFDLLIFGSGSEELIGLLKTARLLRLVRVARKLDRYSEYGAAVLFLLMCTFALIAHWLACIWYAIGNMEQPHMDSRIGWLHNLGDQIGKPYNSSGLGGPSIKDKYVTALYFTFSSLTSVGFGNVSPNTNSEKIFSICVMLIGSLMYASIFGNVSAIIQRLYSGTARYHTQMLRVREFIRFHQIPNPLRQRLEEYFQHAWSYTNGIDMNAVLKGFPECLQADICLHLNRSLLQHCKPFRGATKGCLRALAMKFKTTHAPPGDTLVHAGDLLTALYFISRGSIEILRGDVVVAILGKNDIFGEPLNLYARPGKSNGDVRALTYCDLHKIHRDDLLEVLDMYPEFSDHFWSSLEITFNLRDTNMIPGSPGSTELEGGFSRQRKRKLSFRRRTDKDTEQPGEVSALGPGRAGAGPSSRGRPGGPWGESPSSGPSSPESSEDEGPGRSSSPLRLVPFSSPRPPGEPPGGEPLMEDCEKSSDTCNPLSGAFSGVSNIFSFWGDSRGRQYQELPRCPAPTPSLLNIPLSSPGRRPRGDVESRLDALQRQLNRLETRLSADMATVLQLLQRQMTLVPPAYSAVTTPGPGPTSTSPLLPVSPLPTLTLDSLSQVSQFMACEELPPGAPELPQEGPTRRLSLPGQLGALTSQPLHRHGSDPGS
# [4] = target: Tyrosine-protein kinase Blk (Homo sapiens) (UniProt P51451); test: Inhibition of wild-type human partial length BLK (G211 to L503 residues) expressed in bacterial expression system assessed as residual activity at 1 uM by Kinomescan method relative to control
# [5] = target: CDK4/Cyclin D3 (Homo sapiens) (UniProt P11802+P30281); test: Inhibition of wild-type human full length CDK4/cyclinD3 (M1 to E303 residues) expressed in mammalian expression system assessed as residual activity at 1 uM by Kinomescan method relative to control
# [6] = target: Casein kinase I isoform delta (Homo sapiens) (UniProt P48730); test: Inhibition of CK1D (unknown origin) assessed as residual activity at 1 uM by Kinomescan method relative to control
# [7] = target: Tyrosine-protein kinase Fer (Homo sapiens) (UniProt P16591); test: Inhibition of wild-type human partial length FER (S542 to T822 residues) expressed in bacterial expression system assessed as residual activity at 1 uM by Kinomescan method relative to control
# [8] = target: G protein-coupled receptor kinase 3 (Homo sapiens) (UniProt P35626); test: Inhibition of wild-type human full length GRK3 (M1 to L688 residues) expressed in mammalian expression system assessed as residual activity at 1 uM by Kinomescan method relative to control
# [9] = target: G protein-coupled receptor kinase 4 (Homo sapiens) (UniProt P32298); test: Inhibition of wild type human full length GRK4 (M1 to C578 residues) expressed in bacterial expression system assessed as residual activity at 1 uM by Kinomescan method relative to control
# G protein-coupled receptor kinase 4 (Homo sapiens), sequence (P32298 whole entry, looked up, the tested form may be a part): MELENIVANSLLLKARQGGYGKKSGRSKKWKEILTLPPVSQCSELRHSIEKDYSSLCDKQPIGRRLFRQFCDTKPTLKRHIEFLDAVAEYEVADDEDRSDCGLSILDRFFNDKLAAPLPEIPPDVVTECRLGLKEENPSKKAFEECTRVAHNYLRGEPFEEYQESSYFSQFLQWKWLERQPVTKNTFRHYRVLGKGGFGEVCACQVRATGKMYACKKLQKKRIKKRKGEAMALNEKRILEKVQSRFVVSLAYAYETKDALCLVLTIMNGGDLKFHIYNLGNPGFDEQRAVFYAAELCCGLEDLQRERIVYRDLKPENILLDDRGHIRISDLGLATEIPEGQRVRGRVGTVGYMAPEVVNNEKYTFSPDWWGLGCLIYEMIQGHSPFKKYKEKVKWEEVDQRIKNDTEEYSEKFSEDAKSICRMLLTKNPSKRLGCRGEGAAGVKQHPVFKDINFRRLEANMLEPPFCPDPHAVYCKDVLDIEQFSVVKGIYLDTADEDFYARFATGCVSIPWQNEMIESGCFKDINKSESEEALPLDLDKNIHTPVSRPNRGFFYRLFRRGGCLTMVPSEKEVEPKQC
# [10] = target: Glycogen synthase kinase-3 alpha (Homo sapiens) (UniProt P49840); test: Inhibition of wild-type human full length GSK3A (M1 to S483 residues) expressed in bacterial expression system assessed as residual activity at 1 uM by Kinomescan method relative to control
# [11] = target: MAP kinase-activated protein kinase 2 (Homo sapiens) (UniProt P49137); test: Inhibition of wild-type human partial length MAPKAPK2 (V48 to D345 residues) expressed in bacterial expression system assessed as residual activity at 1 uM by Kinomescan method relative to control
# [12] = target: Serine/threonine-protein kinase MARK2 (Homo sapiens) (UniProt Q7KZI7); test: Inhibition of wild-type human partial length MARK2 (M1 to R450 residues) expressed in bacterial expression system assessed as residual activity at 1 uM by Kinomescan method relative to control
# [13] = target: Dual specificity mitogen-activated protein kinase kinase 2 (Homo sapiens) (UniProt P36507); test: Inhibition of wild-type human full length MEK2 (M1 to V400 residues) expressed in mammalian expression system assessed as residual activity at 1 uM by Kinomescan method relative to control
# Dual specificity mitogen-activated protein kinase kinase 2 (Homo sapiens), sequence (P36507 whole entry, the tested form may be a part): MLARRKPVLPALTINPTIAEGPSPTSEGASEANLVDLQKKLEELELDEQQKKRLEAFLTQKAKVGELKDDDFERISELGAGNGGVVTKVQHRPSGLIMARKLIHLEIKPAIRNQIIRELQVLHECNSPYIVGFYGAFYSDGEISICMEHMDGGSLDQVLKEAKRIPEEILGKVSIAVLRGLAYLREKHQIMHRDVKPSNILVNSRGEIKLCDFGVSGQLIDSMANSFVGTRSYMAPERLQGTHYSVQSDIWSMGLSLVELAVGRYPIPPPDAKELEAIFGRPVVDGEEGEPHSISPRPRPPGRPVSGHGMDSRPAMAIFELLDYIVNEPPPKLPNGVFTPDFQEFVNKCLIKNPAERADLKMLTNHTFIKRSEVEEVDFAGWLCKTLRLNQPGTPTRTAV
# [14] = target: Myosin light chain kinase 2, skeletal/cardiac muscle (Homo sapiens) (UniProt Q9H1R3); test: Inhibition of MLCK2 (unknown origin) assessed as residual activity at 1 uM by Kinomescan method relative to control
# Myosin light chain kinase 2, skeletal/cardiac muscle (Homo sapiens), sequence (Q9H1R3 whole entry, the tested form may be a part): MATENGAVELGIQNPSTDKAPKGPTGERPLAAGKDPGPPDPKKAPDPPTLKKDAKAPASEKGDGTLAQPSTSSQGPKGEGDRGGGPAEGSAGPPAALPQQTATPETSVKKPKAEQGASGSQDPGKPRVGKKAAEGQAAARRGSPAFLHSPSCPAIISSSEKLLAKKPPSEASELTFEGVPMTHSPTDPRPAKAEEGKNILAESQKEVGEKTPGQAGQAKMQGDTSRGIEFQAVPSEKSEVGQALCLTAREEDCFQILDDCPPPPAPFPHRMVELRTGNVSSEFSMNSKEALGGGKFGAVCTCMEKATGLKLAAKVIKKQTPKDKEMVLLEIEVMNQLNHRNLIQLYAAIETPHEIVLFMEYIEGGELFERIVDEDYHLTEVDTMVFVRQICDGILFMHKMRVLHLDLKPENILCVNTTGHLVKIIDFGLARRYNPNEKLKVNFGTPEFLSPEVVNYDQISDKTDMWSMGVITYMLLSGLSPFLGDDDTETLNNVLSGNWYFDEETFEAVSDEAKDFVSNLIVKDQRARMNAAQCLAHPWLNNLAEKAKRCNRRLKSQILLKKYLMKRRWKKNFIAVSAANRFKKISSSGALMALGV
# [15] = target: Serine/threonine-protein kinase NLK (Homo sapiens) (UniProt Q9UBE8); test: Inhibition of wild-type human full length NLK (M13 to E527 residues) expressed in bacterial expression system assessed as residual activity at 1 uM by Kinomescan method relative to control
# [16] = target: Mitogen-activated protein kinase 14 (Homo sapiens) (UniProt Q16539); test: Inhibition of wild-type human full length p38-alpha (M1 to S360 residues) expressed in bacterial expression system assessed as residual activity at 1 uM by Kinomescan method relative to control
# [17] = target: Protein kinase C gamma type (Homo sapiens) (UniProt P05129); test: Inhibition of PKCgamma (unknown origin) assessed as residual activity at 1 uM by Kinomescan method relative to control
# [18] = target: Serine/threonine-protein kinase D1 (Homo sapiens) (UniProt Q15139); test: Inhibition of wild-type human partial length PRKD1 (G551 to E870 residues) expressed in bacterial expression system assessed as residual activity at 1 uM by Kinomescan method relative to control
# Serine/threonine-protein kinase D1 (Homo sapiens), sequence (Q15139 whole entry, the tested form may be a part): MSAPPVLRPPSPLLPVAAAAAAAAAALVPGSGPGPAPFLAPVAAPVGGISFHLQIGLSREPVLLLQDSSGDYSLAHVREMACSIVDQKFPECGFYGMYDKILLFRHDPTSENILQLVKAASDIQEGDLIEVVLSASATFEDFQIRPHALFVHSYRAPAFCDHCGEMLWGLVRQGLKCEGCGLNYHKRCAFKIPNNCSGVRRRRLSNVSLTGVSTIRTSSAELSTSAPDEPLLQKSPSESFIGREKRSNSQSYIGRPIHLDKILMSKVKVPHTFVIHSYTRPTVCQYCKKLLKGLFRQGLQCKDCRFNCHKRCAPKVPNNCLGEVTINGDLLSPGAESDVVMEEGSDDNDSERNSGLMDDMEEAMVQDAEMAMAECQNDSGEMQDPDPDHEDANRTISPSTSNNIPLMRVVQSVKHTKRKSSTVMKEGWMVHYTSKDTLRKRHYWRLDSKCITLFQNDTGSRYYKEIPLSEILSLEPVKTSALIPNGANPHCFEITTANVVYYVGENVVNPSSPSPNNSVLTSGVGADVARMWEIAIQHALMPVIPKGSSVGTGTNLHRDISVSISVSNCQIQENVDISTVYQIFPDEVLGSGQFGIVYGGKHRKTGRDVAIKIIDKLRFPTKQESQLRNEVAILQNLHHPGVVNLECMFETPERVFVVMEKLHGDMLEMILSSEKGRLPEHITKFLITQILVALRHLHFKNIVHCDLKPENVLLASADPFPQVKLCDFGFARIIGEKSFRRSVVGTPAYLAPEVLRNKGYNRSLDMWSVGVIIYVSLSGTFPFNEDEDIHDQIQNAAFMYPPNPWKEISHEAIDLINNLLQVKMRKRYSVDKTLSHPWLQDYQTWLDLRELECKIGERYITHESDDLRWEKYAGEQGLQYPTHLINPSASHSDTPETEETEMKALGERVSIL
# [19] = target: Ribosomal protein S6 kinase alpha-3 (Homo sapiens) (UniProt P51812); test: Inhibition of wild-type human partial length N-terminal RSK2 kinase domain 1 (M1 to D394 residues) expressed in mammalian expression system assessed as residual activity at 1 uM by Kinomescan method relative to control
# [20] = target: Ribosomal protein S6 kinase alpha-2 (Homo sapiens) (UniProt Q15349); test: Inhibition of human RSK3 expressed in bacterial expression system assessed as residual activity at 1 uM by Kinomescan method relative to control
# [21] = target: SRSF protein kinase 1 (Homo sapiens) (UniProt Q96SB4); test: Inhibition of wild-type human full length SRPK1 (M1 to S655 residues) expressed in bacterial expression system assessed as residual activity at 1 uM by Kinomescan method relative to control
# [22] = target: Serine/threonine-protein kinase 25 (Homo sapiens) (UniProt O00506); test: Inhibition of wild-type human partial length YSK1 (V14 to H295 residues) expressed in bacterial expression system assessed as residual activity at 1 uM by Kinomescan method relative to control
# [23] = target: Serine/threonine-protein kinase TAO3 (Homo sapiens) (UniProt Q9H2K8); test: Inhibition of wild-type human partial length TAOK3 (M1 to T316 residues) expressed in mammalian expression system assessed as residual activity at 1 uM by Kinomescan method relative to control
# [24] = target: Non-receptor tyrosine-protein kinase TYK2 (Homo sapiens) (UniProt P29597); test: Inhibition of wild-type human partial length TYK2 expressed in mammalian expression system assessed as residual activity at 1 uM by Kinomescan method relative to control
# [25] = target: Serine/threonine-protein kinase ICK (Homo sapiens) (UniProt Q9UPZ9); test: Inhibition of wild-type human partial length ICK (M1 to P314 residues) expressed in mammalian expression system assessed as residual activity at 1 uM by Kinomescan method relative to control
# [26] = target: LIM domain kinase 2 (Homo sapiens) (UniProt P53671); test: Inhibition of wild-type human full length LIMK2 (M1 to P638 residues) expressed in bacterial expression system assessed as residual activity at 1 uM by Kinomescan method relative to control
# [27] = target: Serine/threonine-protein kinase Nek5 (Homo sapiens) (UniProt Q6P3R8); test: Inhibition of wild-type human partial length NEK5 (M1 to M279 residues) expressed in bacterial expression system assessed as residual activity at 1 uM by Kinomescan method relative to control
# [28] = target: Serine/threonine-protein kinase 32B (Homo sapiens) (UniProt Q9NY57); test: Inhibition of wild-type human full length YANK2 (M1 to S414 residues) expressed in bacterial expression system assessed as residual activity at 1 uM by Kinomescan method relative to control
# Serine/threonine-protein kinase 32B (Homo sapiens), sequence (Q9NY57 whole entry, the tested form may be a part): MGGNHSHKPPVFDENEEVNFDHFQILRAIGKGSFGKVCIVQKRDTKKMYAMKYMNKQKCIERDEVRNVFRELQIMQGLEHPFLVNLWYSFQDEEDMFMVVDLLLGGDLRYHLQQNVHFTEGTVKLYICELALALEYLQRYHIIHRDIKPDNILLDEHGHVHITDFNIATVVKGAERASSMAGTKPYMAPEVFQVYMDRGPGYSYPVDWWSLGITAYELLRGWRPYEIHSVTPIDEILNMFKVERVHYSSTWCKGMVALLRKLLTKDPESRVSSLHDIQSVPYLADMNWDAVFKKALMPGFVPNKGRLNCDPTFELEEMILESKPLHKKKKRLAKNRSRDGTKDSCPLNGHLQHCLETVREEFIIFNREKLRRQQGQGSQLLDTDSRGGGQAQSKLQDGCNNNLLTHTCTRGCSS
smiles,measurement,setting,value
CCOc1nc(Nc2ccc(C(=O)N3CCOCC3)cc2OC)nc2[nH]ccc12,AUCt/dose,[1],252 ng·h/g/mg/kg
same,fraction unbound,[2],0.032
same,IC50,[3],> 63.1 µM
same,Activity,[4],114%
same,Activity,[5],92.8%
same,Activity,[6],80.2%
same,Activity,[7],36.5%
same,Activity,[8],97.2%
same,Activity,[9],84.6%
same,Activity,[10],87.8%
same,Activity,[11],91.6%
same,Activity,[12],96%
same,Activity,[13],94.5%
same,Activity,[14],95.6%
same,Activity,[15],94.5%
same,Activity,[16],99.9%
same,Activity,[17],101%
same,Activity,[18],46.9%
same,Activity,[19],65.1%
same,Activity,[20],80.3%
same,Activity,[21],87.4%
same,Activity,[22],95.4%
same,Activity,[23],97.8%
same,Activity,[24],96.5%
same,Activity,[25],104%
same,Activity,[26],106%
same,Activity,[27],94.8%
same,Activity,[28],100%
